In US7759344B2, “Bis-aryl amide derivatives and methods of use” (priority 2007, dated 2010) one finds Ki data, which are given here for 16 compounds.

Structures are written as SMILES. pKi: −log10 of the molar value. Some results are limits rather than exact numbers.

Broadly, the pKi is −log10 of the Ki, conventionally taken in molar units.

T1 sequence (P08581 1058-1365): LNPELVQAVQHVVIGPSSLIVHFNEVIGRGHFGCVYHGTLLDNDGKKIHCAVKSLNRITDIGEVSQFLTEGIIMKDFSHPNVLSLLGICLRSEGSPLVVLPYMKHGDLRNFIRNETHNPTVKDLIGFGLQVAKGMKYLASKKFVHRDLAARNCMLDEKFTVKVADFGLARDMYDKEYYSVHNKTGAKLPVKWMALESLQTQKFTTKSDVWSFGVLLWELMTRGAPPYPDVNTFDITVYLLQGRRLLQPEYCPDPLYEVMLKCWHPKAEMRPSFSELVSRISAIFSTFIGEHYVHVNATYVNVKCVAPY

This experiment addresses T1, c-Met (Homo sapiens, UniProt P08581).
T1 construct: A PCR product covering residues 1058-1365 of c-Met (c-Met kinase domain) is generated; made in house; host or cells: Baculovirus cells (baculovirus/insect-cell expression)
The experiment is described as follows: c-Met Receptor Assay (HTRF kinase assay with GST-cMet (P) enzyme, gastrin and ATP). It is filed as biochemical. The method, then:
Cloning, Expression and Purification of c-Met Kinase Domain
Alternative purification of human GST-cMET from Baculovirus cells
The resin is washed with 10 column volumes (100 mL) of Lysis Buffer. […] The elution is collected as 15 mL fractions. Aliquots of the elution fractions are run on SDS PAGE (12% Tris Glycine gel, Invitrogen, #EC6005BOX). The gel is stained with 0.25% Coomassie Blue stain. Fractions with GST-cMET are concentrated with a Vivaspin 20 mL Concentrator (#VS2002; […]) to a final volume less than 2.0 ml. […] The GST-cMET is eluted with an isocratic run of the above buffer, with the eluent collected in 1.0 mL fractions. Fractions with significant OD280 readings are run on another 12% Tris Glycine gel. The peak tubes with GST-cMET are pooled and the OD280 is read with the column buffer listed above as the blank buffer. • Phosphorylation of the purified GST-cMET is performed by incubating the protein for 3 h at RT with the following:
After incubation, the solution is concentrated in a Vivaspin 20 ml Concentrator to a volume less than 2.00 ml. The solution is applied to the same Superdex 75 16/60 column used above after re-equilibration. The GST-cMET is eluted as described above. The elution fractions corresponding to the first eluted peak on the chromatogram are run on a 12% Tris Glycine gel, as above, to identify the fractions with GST-cMET. Fractions are pooled and the OD280 is read with the column buffer used as the blank.
A Kinase reaction Buffer is prepared as follows:
When the assay is carried out, freshly add:
The HTRF Buffer Contains: • 50 mM Tris-HCl (pH 7.5), 100 mM NaCl, 0.1% BSA, 0.05% Tween 20,5mM EDTA
Dilute GST-cMet (P) Enzyme in Kinase Buffer as Follows:
2. Assay Plate Preparation:
Then incubate the plate at RT for 30 min.
3. Prepare Gastrin and ATP working solution in kinase reaction buffer as follows:
Use Biomek FX to add 20 μl ATP and Gastrin working solution to the assay plate to start reaction, incubate the plate at RT for 1 h. 4. Transfer 5 μL reaction product at the end of 1 h into 80 μL HTRF buffer in black plate
For orientation: TR-FRET usually uses a lanthanide donor and a delayed reading to cut background.
`Cc1c(C(=O)Nc2ccc(-c3cccc4c(NCCN(C)C)nccc34)cc2)c(=O)n(-c2ccccc2)n1CC(C)(C)O` [Example 14, N-(4-(1-(2-(dimethylamino)ethylamino)isoquinolin-5-yl)phenyl)-1-(2-hydroxy-2-methylpropyl)-5-methyl-3-oxo-2-phenyl-2,3-dihydro-1H-pyrazole-4-carboxamide] gave a pKi of under 4.70.

In turn, `Cc1c(C(=O)Nc2ccc(-c3cccc4c(N(C)CCCN(C)C)nccc34)cc2)c(=O)n(-c2ccccc2)n1CC(C)(C)O` [Example 16, N-(4-(1-((3-(dimethylamino)propyl)(methyl)amino)isoquinolin-5-yl)phenyl)-1-(2-hydroxy-2-methylpropyl)-5-methyl-3-oxo-2-phenyl-2,3-dihydro-1H-pyrazole-4-carboxamide] showed a negative logarithm of the Ki (pKi) of 5.84.

For `Cc1c(C(=O)Nc2ccc(-c3nncc4cnccc34)c(F)c2)c(=O)n(-c2ccccc2)n1C` [Example 9, N-(3-fluoro-4-pyrido[3,4-d]pyridazin-1-ylphenyl)-1,5-dimethyl-3-oxo-2-phenyl-2,3-dihydro-1H-pyrazole-4-carboxamide], the negative logarithm of the Ki (pKi) is 5.62.

`Cc1c(C(=O)Nc2ccc(-c3cccc4cnccc34)c(F)c2)c(=O)n(-c2ccccc2)n1C[C@H](C)O` [Example 11, N-(3-fluoro-4-(isoquinolin-5-yl)phenyl)-1-((S)-2-hydroxypropyl)-5-methyl-3-oxo-2-phenyl-2,3-dihydro-1H-pyrazole-4-carboxamide] had a pKi of 7.33.

`Cc1c(C(=O)Nc2ccc(-c3cccc4[nH]nc(N)c34)c(F)c2)c(=O)n(-c2ccccc2)n1CC(C)(C)O` [Example 5, N-(4-(3-amino-1H-indazol-4-yl)-3-fluorophenyl)-1-(2-hydroxy-2-methylpropyl)-5-methyl-3-oxo-2-phenyl-2,3-dihydro-1H-pyrazole-4-carboxamide]: the pKi was 7.07.

For `Cc1c(C(=O)Nc2ccc(-c3cccc4cnccc34)cc2F)c(=O)n(-c2ccccc2)n1CC(C)(C)O` [Example 7, N-(2-fluoro-4-(5-isoquinolinyl)phenyl)-1-(2-hydroxy-2-methylpropyl)-5-methyl-3-oxo-2-phenyl-2,3-dihydro-1H-pyrazole-4-carboxamide], the negative-log Ki (pKi) is 6.81.

The compound `Cc1c(C(=O)Nc2ccc(-c3cccc4c(N(C)CCN(C)C)nccc34)cc2)c(=O)n(-c2ccccc2)n1CC(C)(C)O` [Example 15, N-(4-(1-((2-(dimethylamino)ethyl)(methyl)amino)isoquinolin-5-yl)phenyl)-1-(2-hydroxy-2-methylpropyl)-5-methyl-3-oxo-2-phenyl-2,3-dihydro-1H-pyrazole-4-carboxamide] gave a pKi of under 5.18.

Compound `Cc1c(C(=O)Nc2ccc(-c3cccc4c(N)nccc34)c(F)c2)c(=O)n(-c2ccccc2)n1CC(C)(C)O` [Example 3, N-(4-(1-amino-5-isoquinolinyl)-3-fluorophenyl)-1-(2-hydroxy-2-methylpropyl)-5-methyl-3-oxo-2-phenyl-2,3-dihydro-1H-pyrazole-4-carboxamide] gave a pKi of 7.25.

Take `Cc1c(C(=O)Nc2ccc(-c3cccc4cnccc34)c(F)c2)c(=O)n(-c2ccccc2)n1C[C@@H](C)O` [Example 12, N-(3-fluoro-4-(isoquinolin-5-yl)phenyl)-1-((R)-2-hydroxypropyl)-5-methyl-3-oxo-2-phenyl-2,3-dihydro-1H-pyrazole-4-carboxamide]: the negative logarithm of the Ki (pKi) was 7.21.

With `Cc1c(C(=O)Nc2ccc(-c3cccc4c(N)nccc34)c(F)c2)c(=O)n(-c2ccccc2)n1C` [Example 2, N-(4-(1-amino-5-isoquinolinyl)-3-fluorophenyl)-1,5-dimethyl-3-oxo-2-phenyl-2,3-dihydro-1H-pyrazole-4-carboxamide], the negative logarithm of the Ki (pKi) is 7.55.

As to `Cc1c(C(=O)Nc2ccc(-c3cccc4cnccc34)c(F)c2)c(=O)n(-c2ccccc2)n1C` [Example 4, N-(3-fluoro-4-(5-isoquinolinyl)phenyl)-1,5-dimethyl-3-oxo-2-phenyl-2,3-dihydro-1H-pyrazole-4-carboxamide], the negative-log Ki (pKi) was 7.14.

Take `Cc1c(C(=O)Nc2ccc(-c3cccc4c(NCCCN5CCOCC5)nccc34)cc2)c(=O)n(-c2ccccc2)n1CC(C)(C)O` [Example 13, 1-(2-hydroxy-2-methylpropyl)-5-methyl-N-(4-(1-(3-morpholinopropylamino)-isoquinolin-5-yl)phenyl)-3-oxo-2-phenyl-2,3-dihydro-1H-pyrazole-4-carboxamide]: the negative logarithm of the Ki (pKi) is 5.48.

As to `Cc1c(C(=O)Nc2ccc(-c3cccc4cnccc34)c(F)c2)c(=O)n(-c2ccccc2)n1CC(C)(C)O` [Example 6, N-(3-fluoro-4-(5-isoquinolinyl)phenyl)-1-(2-hydroxy-2-methylpropyl)-5-methyl-3-oxo-2-phenyl-2,3-dihydro-1H-pyrazole-4-carboxamide], the negative logarithm of the Ki (pKi) was 6.85.

`Cc1c(C(=O)Nc2ccc(-c3cccc4[nH]nc(N)c34)cc2)c(=O)n(-c2ccccc2)n1CC(C)(C)O` [Example 8, N-(4-(3-amino-1H-indazol-4-yl)phenyl)-1-(2-hydroxy-2-methylpropyl)-5-methyl-3-oxo-2-phenyl-2,3-dihydro-1H-pyrazole-4-carboxamide] showed a pKi of 6.60.

`Cc1c(C(=O)Nc2ccc(-c3cccc4[nH]nc(N)c34)c(F)c2)c(=O)n(-c2ccccc2)n1C` [Example 1, N-(4-(3-amino-1H-indazol-4-yl)-3-fluorophenyl)-1,5-dimethyl-3-oxo-2-phenyl-2,3-dihydro-1H-pyrazole-4-carboxamide]: the negative-log Ki (pKi) was 7.68.

As for `Cc1cc(NC(=O)c2c(C)n(CC(C)(C)O)n(-c3ccccc3)c2=O)ccc1-c1cccc2cnccc12` [Example 10, 1-(2-Hydroxy-2-methylpropyl)-N-(4-(5-isoquinolinyl)-3-methylphenyl)-5-methyl-3-oxo-2-phenyl-2,3-dihydro-1H-pyrazole-4-carboxamide], the pKi is 6.43.
